Source: patent US8349824B2, “Triazolopyridine compounds” (Hoffmann-La Roche Inc., priority 2010, dated 2013)
pIC50: −log10 of the molar value.

target: T1, human PDE10A full length (Homo sapiens, UniProt Q9Y233); assay: PDE10A Scintillation Proximity Assay (SPA), human PDE10A full length assay; type: biochemical; details: 50 nM cGMP + 50 nM [3H]-cGMP, 20 minutes at room temperature, read-out: PDE10A inhibition IC50
T1 construct: purchased Enzo Life Science, Lausen, Switzerland SE-534
Protocol: The following test was carried out in order to determine the activity of the compounds of the present invention. PDE10 activity of the compounds of the present invention was determined using a Scintillation Proximity Assay (SPA)-based method similar to the one previously described (Fawcett, L. et al., Proc Natl Acad Sci USA (2000) 97(7):3702-3707).
The human PDE10A full length assay was performed in 96-well micro titer plates. The reaction mixture of 50 μl contained 20 mM HEPES pH=7.5/10 mM MgCl2/0.05 mg/ml BSA (Sigma cat. #A-7906), 50 nM cGMP (Sigma, cat. #G6129) and 50 nM [^3H]-cGMP (GE Healthcare, cat. #TRK392 S.A. 13.2Ci/mmol), 3.75 ng/well PDE10A enzyme (Enzo Life Science, Lausen, Switzerland cat #SE-534) with or without a specific test compound. A range of concentrations of the potential inhibitor was used to generate data for calculating the concentration of inhibitor resulting in 50% of the effect (e.g. IC50, the concentration of the competitor inhibiting PDE10A activity by 50%). Non-specific activity was tested without the enzyme. The reaction was initiated by the addition of the substrate solution (cGMP and [^3H]-cGMP) and allowed to progress for 20 minutes at room temperature. The reaction was terminated by adding 25 μl of YSi-SPA scintillation beads (GE Healthcare, cat. #RPNQ0150) in 18 mM zinc sulphate solution (stop reagent). After 1 h under shaking, the plate was centrifuged one minute at 170 g to allow beads to settle. Afterwards, radioactive counts were measured on a Perkin Elmer TopCount Scintillation plate reader.

T1 sequence (Q9Y233 1-779 isoform Q9Y233-1): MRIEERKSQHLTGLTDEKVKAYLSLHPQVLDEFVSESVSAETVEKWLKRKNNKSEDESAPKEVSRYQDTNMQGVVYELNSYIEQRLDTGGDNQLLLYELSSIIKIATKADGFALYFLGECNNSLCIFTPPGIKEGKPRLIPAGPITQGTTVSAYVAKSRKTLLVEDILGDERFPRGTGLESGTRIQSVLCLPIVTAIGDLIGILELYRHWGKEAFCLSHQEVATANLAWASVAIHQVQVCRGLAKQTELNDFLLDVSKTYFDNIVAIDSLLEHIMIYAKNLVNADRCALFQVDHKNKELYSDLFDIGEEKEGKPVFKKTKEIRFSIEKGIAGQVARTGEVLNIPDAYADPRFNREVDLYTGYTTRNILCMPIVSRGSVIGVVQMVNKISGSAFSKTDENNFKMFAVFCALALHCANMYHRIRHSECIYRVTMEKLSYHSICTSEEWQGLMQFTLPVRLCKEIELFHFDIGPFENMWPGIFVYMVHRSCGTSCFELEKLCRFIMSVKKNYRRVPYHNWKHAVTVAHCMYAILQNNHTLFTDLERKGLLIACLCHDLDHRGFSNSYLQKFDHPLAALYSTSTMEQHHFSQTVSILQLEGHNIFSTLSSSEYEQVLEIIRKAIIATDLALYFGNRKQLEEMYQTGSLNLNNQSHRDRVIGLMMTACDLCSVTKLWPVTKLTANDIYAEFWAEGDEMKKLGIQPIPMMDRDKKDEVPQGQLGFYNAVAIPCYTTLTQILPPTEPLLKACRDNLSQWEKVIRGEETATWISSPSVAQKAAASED

Compound | pIC50
CN(CCF)C(=O)c1cnn(C)c1C(=O)Nc1ccn2nc(N3CCOCC3)nc2c1 [Example 21, N4-(2-Fluoroethyl)-N4,1-dimethyl-N5-(2-morpholino-[1,2,4]triazolo[1,5-a]pyridin-7-yl)-1H-pyrazole-4,5-dicarboxamide] | 7.58
CC(C)OC(=O)c1cnn(C)c1C(=O)Nc1ccn2nc(-c3ccccc3)nc2c1 [Example 27, Isopropyl 1-methyl-5-(2-phenyl-[1,2,4]triazolo[1,5-a]pyridin-7-ylcarbamoyl)-1H-pyrazole-4-carboxylate] | 8.10
Cn1ncc(C(=O)N2CCC2)c1C(=O)Nc1ccn2nc(C(=O)NCCC(F)(F)F)nc2c1 [Example 33, 7-(4-(Azetidine-1-carbonyl)-1-methyl-1H-pyrazole-5-carboxamido)-N-(3,3,3-trifluoropropyl)-[1,2,4]triazolo[1,5-a]pyridine-2-carboxamide] | 7.54
Cn1ncc(C(=O)N2CCCC2)c1C(=O)Nc1ccn2nc(N3CCOCC3)nc2c1 [Example 42, 1-Methyl-N-(2-morpholino-[1,2,4]triazolo[1,5-a]pyridin-7-yl)-4-(pyrrolidine-1-carbonyl)-1H-pyrazole-5-carboxamide] | 8.29
Cn1ncc(C(=O)N2CC(F)C2)c1C(=O)Nc1ccn2nc(N3CCOCC3)nc2c1 [Example 43, 4-(3-Fluoroazetidine-1-carbonyl)-1-methyl-N-(2-morpholino-[1,2,4]triazolo[1,5-a]pyridin-7-yl)-1H-pyrazole-5-carboxamide] | 8.42
CN(CC(F)(F)F)C(=O)c1cnn(C)c1C(=O)Nc1ccn2nc(N3CCOCC3)nc2c1 [Example 54, 2-Methyl-2H-pyrazole-3,4-dicarboxylic acid 4-[methyl-(2,2,2-trifluoro-ethyl)-amide]3-[(2-morpholin-4-yl-[1,2,4]triazolo[1,5-a]pyridin-7-yl)-amide]] | 7.09
CN(C)C(=O)c1nc2cc(NC(=O)c3c(C(=O)N4CCC4)cnn3C)ccn2n1 [Example 62, 7-{[4-(Azetidine-1-carbonyl)-2-methyl-2H-pyrazole-3-carbonyl]-amino}-[1,2,4]triazolo[1,5-a]pyridine-2-carboxylic acid dimethylamide] | 6.95

Now those with a higher pIC50, led by results:

pIC50 | Compound
8.95 | CN(C(=O)c1cnn(C)c1C(=O)Nc1ccn2nc(N3CCOCC3)nc2c1)C1CC1 [Example 53, N4-cyclopropyl-N4,1-dimethyl-N5-(2-morpholino-[1,2,4]triazolo[1,5-a]pyridin-7-yl)-1H-pyrazole-4,5-dicarboxamide]
9.17 | COc1ccccc1-c1nc2cc(NC(=O)c3c(C(=O)N4CCOCC4)cnn3C)ccn2n1 [Example 69, 2-Methyl-4-(morpholine-4-carbonyl)-2H-pyrazole-3-carboxylic acid [2-(2-methoxy-phenyl)-[1,2,4]triazolo[1,5-a]pyridin-7-yl]-amide]
9.35 | CN(C(=O)c1cnn(C)c1C(=O)Nc1ccn2nc(-c3cccnc3)nc2c1)C1CC1 [Example 55, 2-Methyl-2H-pyrazole-3,4-dicarboxylic acid 4-(cyclopropyl-methyl-amide)3-[(2-pyridin-3-yl-[1,2,4]triazolo[1,5-a]pyridin-7-yl)-amide]]
9.37 | COCCN(CCOC)C(=O)c1cnn(C)c1C(=O)Nc1ccn2nc(-c3ccccc3)nc2c1 [Example 6, N4,N4-bis(2-methoxyethyl)-1-methyl-N5-(2-phenyl-[1,2,4]triazolo[1,5-a]pyridin-7-yl)-1H-pyrazole-4,5-dicarboxamide]
9.37 | CN(CCF)C(=O)c1cnn(C)c1C(=O)Nc1ccn2nc(-c3ccccc3)nc2c1 [Example 26, 2-Methyl-2H-pyrazole-3,4-dicarboxylic acid 4-[(2-fluoro-ethyl)-methyl-amide]3-[(2-phenyl-[1,2,4]triazolo[1,5-a]pyridin-7-yl)-amide]]
9.57 | Cn1ncc(C(=O)N2CCOCC2)c1C(=O)Nc1ccn2nc(-c3ccccc3)nc2c1 [Example 12, 1-Methyl-4-(morpholine-4-carbonyl)-N-(2-phenyl-[1,2,4]triazolo[1,5-a]pyridin-7-yl)-1H-pyrazole-5-carboxamide]
